What was measured:
[1] = tested on: PHA-induced IL-2 production in PBMCs; test: PHA-induced IL-2 production in PBMCs from healthy male smokers (no IL-2/IL-4 added), ELISA; format: cell-based, human; set-up: PR2005 IC50: unit not given here; settings: for mean IL-2: Table 1; for % inhibition of PHA stimulation of IL-2: Table 2
Method: PBMCs were isolated from human blood buffy coats provided by a regional blood center. Random buffy coat cells from male donors were a by-product of blood processed for clinical use and no details (i.e., personal identification and background) were provided except for tobacco use. […] PBMCs were separated using a porous high density polyethylene barrier (HISTOPAQUE from GEHealthcare Bio-Sciences AB (US). After centrifugation of blood samples in each tube (35 minutes at 800×g at room temperature, or RT), PBMCs were collected and washed twice with Hank's buffered saline solution (HBSS). PBMCs were resuspended in RPMI-1640 medium containing 10% fetal calf serum (FCS) and 15 mM glutamine and cells were counted and plated.
(§1) PBMCs (2×10^6) were incubated with or without IL-2 (13 ng/ml) and IL-4 (6.5 ng/ml) for 48 hours in RPMI-1640 medium containing 10% FCS and 2 mM glutamine. […] IL-2 and IL-4 stimulated PBMCs were also plated at a concentration of 10^6 cells/ml in 96-well plates ready for PHA (15 μg/mL, 24 hours) stimulation of cytokine release and detection by ELISA.
Serial dilutions of standards and PBMCs' supernatants were measured by enzyme linked immunosorbent assay to determine IL-2 at baseline and its levels after 17HPC, P4 and MAP treatments. Optical density was measured at 450 nm and corrected with 550 nm. The concentration of TL-2 was calculated using the standard curve and taking into account the supernatant dilution used. Detection limit for IL-2 is 4.0 pg/ml.
Data are expressed as mean±SD. The efficacies of the drug treatments were analyzed by paired t-test. One-way analysis of variance was used to compare three or more matched groups and 95% CI was performed to present groups differences. All graphs indicate mean values of results or % inhibition of PHA-stimulated IL-2. IC50 values were calculated by using a sigmoidal model (BioDataFit). A p value <0.05 was considered statistically significant.
(§2) IL-2 levels were quantified using ELISA.
IL-2 levels were quantified using ELISA. IC50 values were calculated by using a sigmoidal model (BioDataFit).
as §2, §2, §2

[2] = tested on: PHA-induced IL-2 release in IL-2 and IL-4 treated (steroid resistant) PBMCs; test: IL-2/IL-4 induced steroid resistance model in PBMCs: dexamethasone inhibition of PHA-induced IL-2 release; format: cell-based, human; settings: for PHA-induced IL-2 level: FIG. 5
Method: J Immunol 2009; 183; 164-171). […] Following PBMCs stimulation with mitogen phytohaemagglutinin (PHA), there is a strong correlation between cytokine secretion levels and steroid resistance as well as steroid sensitivity in vitro. Addition of IL-2, IL-4 and TNF-reduce steroid sensitivity.
as §1
IL-2/4 induced steroid resistance in PBMCs, a well-recognized study model, was used to evaluate potential modifiers of steroid resistance and sensitivity. PBMCs from healthy smokers were collected. Corticosteroid insensitivity or resistance was induced by adding IL-2 and IL-4 in peripheral blood mononuclear cells (PBMCs) from healthy male smokers (n=˜11). […] IL-2 levels were quantified using ELISA.
J Immunol 2009; 183; 164-171).
as §2

[3] = FIG. 4, high dose Dexamethasone 10^−6 M

CCCCCC(=O)O[C@]1(C(C)=O)CC[C@H]2[C@@H]3CCC4=CC(=O)CC[C@]4(C)[C@H]3CC[C@@]21C [17HPC, 17α-HYDROXYPROGESTERONE CAPROATE]
PR2005 IC50 ([1]; Dexamethasone 0): 6.434 | suppression of PHA induced IL-2 ([1]; FIG. 11, 17HPC add-on to Dexamethasone 10^−6 M): ~100% | improvements in Dexamethasone efficacy (synergetic effect of combination) ([1]; FIG. 12, 17HPC with Dexamethasone): 25-37% | mean IL-2 ([1]; 17HPC 10^−5M + Dexamethasone 10^−6M): 24.61 pg/mL | mean IL-2 ([1]; 17HPC 10^−5M + Dexamethasone 10^−8M): 136.2 pg/mL | mean IL-2 ([1]; 17HPC 10^−5M + Dexamethasone 10^−10M): 138.6 pg/mL | mean IL-2 ([1]; 17HPC 10^−5M + Dexamethasone 10^−12M): 176.2 pg/mL | mean IL-2 ([1]; 17HPC 10^−5M, Dexamethasone 0): 225.6 pg/mL | mean IL-2 ([1]; 17HPC 10^−7M + Dexamethasone 10^−6M): 9.914 pg/mL | mean IL-2 ([1]; 17HPC 10^−7M + Dexamethasone 10^−8M): 229.3 pg/mL | mean IL-2 ([1]; 17HPC 10^−7M + Dexamethasone 10^−10M): 104.5 pg/mL | mean IL-2 ([1]; 17HPC 10^−7M + Dexamethasone 10^−12M): 111.6 pg/mL | mean IL-2 ([1]; 17HPC 10^−7M, Dexamethasone 0): 466.3 pg/mL | mean IL-2 ([1]; 17HPC 10^−10M + Dexamethasone 10^−6M): 27.18 pg/mL | mean IL-2 ([1]; 17HPC 10^−10M + Dexamethasone 10^−8M): 173.5 pg/mL | mean IL-2 ([1]; 17HPC 10^−10M + Dexamethasone 10^−10M): 177.7 pg/mL | mean IL-2 ([1]; 17HPC 10^−10M + Dexamethasone 10^−12M): 132.3 pg/mL | mean IL-2 ([1]; 17HPC 10^−10M, Dexamethasone 0): 420.6 pg/mL | mean IL-2 ([1]; 17HPC 10^−11M + Dexamethasone 10^−6M): 9.05 pg/mL | mean IL-2 ([1]; 17HPC 10^−11M + Dexamethasone 10^−8M): 167.9 pg/mL | mean IL-2 ([1]; 17HPC 10^−11M + Dexamethasone 10^−10M): 164.4 pg/mL | mean IL-2 ([1]; 17HPC 10^−11M + Dexamethasone 10^−12M): 275.2 pg/mL | mean IL-2 ([1]; 17HPC 10^−11M, Dexamethasone 0): 448.2 pg/mL | % inhibition of PHA stimulation of IL-2 ([1]; 17HPC 10^−5 M + Dexamethasone 10^−6 M): 97% | % inhibition of PHA stimulation of IL-2 ([1]; 17HPC 10^−5 M + Dexamethasone 10^−8 M): 81% | % inhibition of PHA stimulation of IL-2 ([1]; 17HPC 10^−5 M + Dexamethasone 10^−10 M): 81% | % inhibition of PHA stimulation of IL-2 ([1]; 17HPC 10^−5 M + Dexamethasone 10^−12 M): 76% | % inhibition of PHA stimulation of IL-2 ([1]; 17HPC 10^−5 M, Dexamethasone 0 M): 69% | % inhibition of PHA stimulation of IL-2 ([1]; 17HPC 10^−7 M + Dexamethasone 10^−6 M): 99% | % inhibition of PHA stimulation of IL-2 ([1]; 17HPC 10^−7 M + Dexamethasone 10^−8 M): 69% | % inhibition of PHA stimulation of IL-2 ([1]; 17HPC 10^−7 M + Dexamethasone 10^−10 M): 86% | % inhibition of PHA stimulation of IL-2 ([1]; 17HPC 10^−7 M + Dexamethasone 10^−12 M): 85% | % inhibition of PHA stimulation of IL-2 ([1]; 17HPC 10^−7 M, Dexamethasone 0 M): 37% | % inhibition of PHA stimulation of IL-2 ([1]; 17HPC 10^−10 M + Dexamethasone 10^−6 M): 96% | % inhibition of PHA stimulation of IL-2 ([1]; 17HPC 10^−10 M + Dexamethasone 10^−8 M): 76% | % inhibition of PHA stimulation of IL-2 ([1]; 17HPC 10^−10 M + Dexamethasone 10^−10 M): 76% | % inhibition of PHA stimulation of IL-2 ([1]; 17HPC 10^−10 M + Dexamethasone 10^−12 M): 82% | % inhibition of PHA stimulation of IL-2 ([1]; 17HPC 10^−10 M, Dexamethasone 0 M): 43% | % inhibition of PHA stimulation of IL-2 ([1]; 17HPC 10^−11 M + Dexamethasone 10^−6 M): 99% | % inhibition of PHA stimulation of IL-2 ([1]; 17HPC 10^−11 M + Dexamethasone 10^−8 M): 77% | % inhibition of PHA stimulation of IL-2 ([1]; 17HPC 10^−11 M + Dexamethasone 10^−10 M): 78% | % inhibition of PHA stimulation of IL-2 ([1]; 17HPC 10^−11 M + Dexamethasone 10^−12 M): 63% | % inhibition of PHA stimulation of IL-2 ([1]; 17HPC 10^−11 M, Dexamethasone 0 M): 39% | IL-2 inhibition ([1]; add-on of low doses of 17HPC (10^−11 M or 10^−10 M) to lower Dexamethasone doses): ≥ 78% | effect in basal IL-2 level ([1]; no PHA stimulation, data not shown): no significant effect | PR2005 IC50 ([1]; with Dexamethasone 10^−8M): 6.243 | PR2005 IC50 ([1]; with Dexamethasone 10^−10M): 11.64 | PR2005 IC50 ([1]; with Dexamethasone 10^−12M): 10.92 | highest improvement rate in Imax [2, 3]: 18% | improvement rate in Imax at all dose levels [2, 3]: 16-18% | PHA-induced IL-2 level ([2]; Dexamethasone 10^−10 M + 17HPC 10^−5M): 1595 pg/mL | PHA-induced IL-2 level ([2]; Dexamethasone 10^−10 M + 17HPC 10^−7M): 1805 pg/mL | PHA-induced IL-2 level ([2]; Dexamethasone 10^−10 M + 17HPC 10^−10 M): 2119 pg/mL | subjects with more than 10% improvement in % maximal Dexamethasone inhibition ([2]; FIG. 6, Dexamethasone 10^−6 M): Ten out of 11
